{"source": "patent US20050222266A1", "about": "“2-indanylamino derivatives for the therapy of chronic pain” (priority 2002, published 2005)", "key": {"[1]": {"system": "ion channel associated to NMDA receptors", "experiment": "inhibiting activity on NMDA-associated ion channel", "type": "biochemical"}, "[2]": {"system": "carrageenan-induced thermal hyperalgesia", "experiment": "carrageenan-induced thermal hyperalgesia model", "type": "in vivo, rats", "details": "for minimum effective dose: given 3 hours after carrageenan", "experimental": "In the carrageenan-induced thermal hyperalgesia model, male rats were habituated to the rat plantar test apparatus and thermal hyperalgesia was then assessed as described in the paragraph concerning the CCI model. Briefly, after baseline paw withdrawal latencies were determined, animals received an intraplantar injection of carrageenan (100 μl of a 20 mg/ml solution) into the right hind paw. Paw withdrawal latencies (PWL) were reassessed following the same protocol as above 2.5 hours after carrageenan. (this time point represented the start of peak hyperalgesia) to ascertain that hyperalgesia had developed. CHF 3381 (3-10-30-60 mg/kg i.p. and 10-30-60-100 mg/kg p.o.) was then administered 3 hours post carrageenan and paw withdrawal latencies were taken again at 3.5, 4 and 5 hours post carrageenan. Carrageenan induced a significant reduction of paw withdrawal latency in all animals at 2.5 hours following injection. This hyperalgesia was maintained in vehicle-treated animals for at least five hours after carrageenan. The i.p. and p.o. administration of CHF 3381 at 3 hours after carrageenan, dose-dependently antagonised the maintenance of thermal hyperalgesia with respective minimum effective doses of 10 mg/kg i.p. and 30 mg/kg p.o. (Table 5)."}}, "note": "Counter-ions that a name gives are not always drawn.", "data": [{"molecule": "NC(=O)CNC1Cc2ccccc2C1", "note": "[CHF 3381, N-2(indanyl)-glicinamide hydrochloride]", "values": [{"measurement": "inhibiting activity towards ion channel associated to NMDA receptors", "setting": "[1]", "value": "inhibiting activity"}, {"measurement": "Paw withdrawal latency", "setting": "[2]; 3 mg/kg i.p. at 3 h, 3.5 h after carrageenan", "value": "5.1 ± 0.60", "unit": "s"}, {"measurement": "Paw withdrawal latency", "setting": "[2]; 3 mg/kg i.p. at 3 h, 4.0 h after carrageenan", "value": "6.7 ± 0.64", "unit": "s"}, {"measurement": "Paw withdrawal latency", "setting": "[2]; 3 mg/kg i.p. at 3 h, 5.0 h after carrageenan", "value": "8.3 ± 0.50", "unit": "s"}, {"measurement": "Paw withdrawal latency", "setting": "[2]; 3 mg/kg i.p. group, 0 h (baseline, before carrageenan and dosing)", "value": "11.2 ± 0.92", "unit": "s"}, {"measurement": "Paw withdrawal latency", "setting": "[2]; 3 mg/kg i.p. group, 2.5 h after carrageenan (before dosing at 3 h)", "value": "4.4 ± 0.50", "unit": "s"}, {"measurement": "Paw withdrawal latency", "setting": "[2]; 10 mg/kg i.p. at 3 h, 3.5 h after carrageenan", "value": "7.4 ± 0.50", "unit": "s"}, {"measurement": "Paw withdrawal latency", "setting": "[2]; 10 mg/kg i.p. at 3 h, 4.0 h after carrageenan", "value": "7.8 ± 0.66", "unit": "s"}, {"measurement": "Paw withdrawal latency", "setting": "[2]; 10 mg/kg i.p. at 3 h, 5.0 h after carrageenan", "value": "8.4 ± 0.80", "unit": "s"}, {"measurement": "Paw withdrawal latency", "setting": "[2]; 10 mg/kg i.p. group, 0 h (baseline, before carrageenan and dosing)", "value": "11.8 ± 0.49", "unit": "s"}, {"measurement": "Paw withdrawal latency", "setting": "[2]; 10 mg/kg i.p. group, 2.5 h after carrageenan (before dosing at 3 h)", "value": "5.1 ± 0.50", "unit": "s"}, {"measurement": "Paw withdrawal latency", "setting": "[2]; 10 mg/kg p.o. at 3 h, 3.5 h after carrageenan", "value": "6.65 ± 1.2", "unit": "s"}, {"measurement": "Paw withdrawal latency", "setting": "[2]; 10 mg/kg p.o. at 3 h, 4.0 h after carrageenan", "value": "6.90 ± 0.61", "unit": "s"}, {"measurement": "Paw withdrawal latency", "setting": "[2]; 10 mg/kg p.o. at 3 h, 5.0 h after carrageenan", "value": "7.29 ± 0.83", "unit": "s"}, {"measurement": "Paw withdrawal latency", "setting": "[2]; 10 mg/kg p.o. group, 0 h (baseline, before carrageenan and dosing)", "value": "12.96 ± 1.01", "unit": "s"}, {"measurement": "Paw withdrawal latency", "setting": "[2]; 10 mg/kg p.o. group, 2.5 h after carrageenan (before dosing at 3 h)", "value": "4.79 ± 0.71", "unit": "s"}, {"measurement": "Paw withdrawal latency", "setting": "[2]; 30 mg/kg i.p. at 3 h, 3.5 h after carrageenan", "value": "6.8 ± 0.70", "unit": "s"}, {"measurement": "Paw withdrawal latency", "setting": "[2]; 30 mg/kg i.p. at 3 h, 4.0 h after carrageenan", "value": "8.8 ± 0.80", "unit": "s"}, {"measurement": "Paw withdrawal latency", "setting": "[2]; 30 mg/kg i.p. at 3 h, 5.0 h after carrageenan", "value": "8.1 ± 0.80", "unit": "s"}, {"measurement": "Paw withdrawal latency", "setting": "[2]; 30 mg/kg i.p. group, 0 h (baseline, before carrageenan and dosing)", "value": "11.3 ± 0.84", "unit": "s"}, {"measurement": "Paw withdrawal latency", "setting": "[2]; 30 mg/kg i.p. group, 2.5 h after carrageenan (before dosing at 3 h)", "value": "4.7 ± 0.60", "unit": "s"}, {"measurement": "Paw withdrawal latency", "setting": "[2]; 30 mg/kg p.o. at 3 h, 3.5 h after carrageenan", "value": "7.38 ± 0.65", "unit": "s"}, {"measurement": "Paw withdrawal latency", "setting": "[2]; 30 mg/kg p.o. at 3 h, 4.0 h after carrageenan", "value": "7.61 ± 0.59", "unit": "s"}, {"measurement": "Paw withdrawal latency", "setting": "[2]; 30 mg/kg p.o. at 3 h, 5.0 h after carrageenan", "value": "9.04 ± 0.85", "unit": "s"}, {"measurement": "Paw withdrawal latency", "setting": "[2]; 30 mg/kg p.o. group, 0 h (baseline, before carrageenan and dosing)", "value": "11.98 ± 0.71", "unit": "s"}, {"measurement": "Paw withdrawal latency", "setting": "[2]; 30 mg/kg p.o. group, 2.5 h after carrageenan (before dosing at 3 h)", "value": "5.78 ± 0.93", "unit": "s"}, {"measurement": "Paw withdrawal latency", "setting": "[2]; 60 mg/kg i.p. at 3 h, 3.5 h after carrageenan", "value": "8.0 ± 1.20", "unit": "s"}, {"measurement": "Paw withdrawal latency", "setting": "[2]; 60 mg/kg i.p. at 3 h, 4.0 h after carrageenan", "value": "10.4 ± 1.39", "unit": "s"}, {"measurement": "Paw withdrawal latency", "setting": "[2]; 60 mg/kg i.p. at 3 h, 5.0 h after carrageenan", "value": "10.7 ± 0.90", "unit": "s"}, {"measurement": "Paw withdrawal latency", "setting": "[2]; 60 mg/kg i.p. group, 0 h (baseline, before carrageenan and dosing)", "value": "11.4 ± 0.85", "unit": "s"}, {"measurement": "Paw withdrawal latency", "setting": "[2]; 60 mg/kg i.p. group, 2.5 h after carrageenan (before dosing at 3 h)", "value": "4.1 ± 0.50", "unit": "s"}, {"measurement": "Paw withdrawal latency", "setting": "[2]; 60 mg/kg p.o. at 3 h, 3.5 h after carrageenan", "value": "8.68 ± 1.16", "unit": "s"}, {"measurement": "Paw withdrawal latency", "setting": "[2]; 60 mg/kg p.o. at 3 h, 4.0 h after carrageenan", "value": "8.20 ± 0.85", "unit": "s"}, {"measurement": "Paw withdrawal latency", "setting": "[2]; 60 mg/kg p.o. at 3 h, 5.0 h after carrageenan", "value": "8.34 ± 0.81", "unit": "s"}, {"measurement": "Paw withdrawal latency", "setting": "[2]; 60 mg/kg p.o. group, 0 h (baseline, before carrageenan and dosing)", "value": "11.98 ± 0.67", "unit": "s"}, {"measurement": "Paw withdrawal latency", "setting": "[2]; 60 mg/kg p.o. group, 2.5 h after carrageenan (before dosing at 3 h)", "value": "5.22 ± 0.58", "unit": "s"}, {"measurement": "reversal of thermal hyperalgesia induced by carrageenan", "setting": "[2]; 100 mg/kg p.o. and 60 mg/kg i.p.", "value": "nearly complete reversal"}, {"measurement": "Paw withdrawal latency", "setting": "[2]; 100 mg/kg p.o. at 3 h, 3.5 h after carrageenan", "value": "10.31 ± 1.20", "unit": "s"}, {"measurement": "Paw withdrawal latency", "setting": "[2]; 100 mg/kg p.o. at 3 h, 4.0 h after carrageenan", "value": "8.72 ± 0.75", "unit": "s"}, {"measurement": "Paw withdrawal latency", "setting": "[2]; 100 mg/kg p.o. at 3 h, 5.0 h after carrageenan", "value": "9.34 ± 0.85", "unit": "s"}, {"measurement": "Paw withdrawal latency", "setting": "[2]; 100 mg/kg p.o. group, 0 h (baseline, before carrageenan and dosing)", "value": "13.24 ± 0.75", "unit": "s"}, {"measurement": "Paw withdrawal latency", "setting": "[2]; 100 mg/kg p.o. group, 2.5 h after carrageenan (before dosing at 3 h)", "value": "5.52 ± 0.96", "unit": "s"}, {"measurement": "minimum effective dose", "setting": "[2]; i.p.", "value": 10, "unit": "mg/kg"}, {"measurement": "minimum effective dose", "setting": "[2]; p.o.", "value": 30, "unit": "mg/kg"}]}]}
